Results from ChEMBL document CHEMBL1135882, “Synthesis and biological evaluation of 2-substituted 3beta-tolyltropane derivatives at dopamine, serotonin, and norepinephrine transporters” (J Med Chem, 2002).
pIC50, pKi: −log10 of the molar value.

Experiments:
Rattus norvegicus [1] = experiment: Percent maximum effect at 54.9 mmol/kg dose that causes compound-appropriate response in rats, trained to discriminate cocaine; type: functional
Rattus norvegicus [2] = species on record: Rattus norvegicus; experiment: Ability to inhibit [3H]dopamine uptake was measured in a chopped tissue assay; type: functional, organism-based
[3] = molecular target: Sodium-dependent dopamine transporter (Rattus norvegicus, UniProt P23977); experiment: Affinity for dopamine transporter was assessed by the ability to displace [3H]WIN-35428 from rat caudate-putamen tissue; type: tissue-based
Rattus norvegicus [4] = species on record: Rattus norvegicus; experiment: Effective dose that causes 50 percent of compound-appropriate response in rats, trained to discriminate cocaine; Value ranges from (17.1-1.22)x10E5, effect is nonsignificant at this dose; type: functional
Rattus norvegicus [5] = experiment: Percent maximum effect at 45.7 mmol/kg dose that causes compound-appropriate response in rats, trained to discriminate cocaine; type: functional
[6] = molecular target: Sodium-dependent serotonin transporter (Rattus norvegicus, UniProt P31652); experiment: Binding affinity for serotonin transporter is assessed from the ability to displace [3H]citalopram from rat brain.
[7] = molecular target: Norepinephrine transporter (Rattus norvegicus, UniProt Q9WTR4); experiment: Binding affinity for Norepinephrine transporter is assessed from the ability to displace [3H]nisoxetine from rat frontal cortex; type: tissue-based
Rattus norvegicus [8] = experiment: Percent maximum effect at 27.0 mmol/kg dose that causes compound-appropriate response in rats, trained to discriminate cocaine; type: functional
Rattus norvegicus [9] = species on record: Rattus norvegicus; experiment: Effective dose that causes 50 percent of compound-appropriate response in rats, trained to discriminate cocaine; Value ranges from (22-51.4), effect is nonsignificant at this dose; type: functional
Rattus norvegicus [10] = experiment: Percent maximum effect at 37.7 mmol/kg dose that causes compound-appropriate response in rats, trained to discriminate cocaine; type: functional
Rattus norvegicus [11] = species on record: Rattus norvegicus; experiment: Effective dose that causes 50 percent of compound-appropriate response in rats, trained to discriminate cocaine; Value ranges from (9.07-256), effect is nonsignificant at this dose; type: functional
Rattus norvegicus [12] = experiment: Percent maximum effect at 2.69 mmol/kg dose that causes compound-appropriate response in rats, trained to discriminate cocaine; type: functional
Rattus norvegicus [13] = species on record: Rattus norvegicus; experiment: Effective dose that causes 50 percent of compound-appropriate response in rats, trained to discriminate cocaine; NS means Nonsignificant linear regression.; type: functional, organism-based
Rattus norvegicus [14] = experiment: Percent maximum effect at 39.0 mmol/kg dose that causes compound-appropriate response in rats, trained to discriminate cocaine; type: functional
Rattus norvegicus [15] = experiment: Percent maximum effect at 89.3 mmol/kg dose that causes compound-appropriate response in rats, trained to discriminate cocaine; type: functional

Chain of Norepinephrine transporter (Q9WTR4 whole entry): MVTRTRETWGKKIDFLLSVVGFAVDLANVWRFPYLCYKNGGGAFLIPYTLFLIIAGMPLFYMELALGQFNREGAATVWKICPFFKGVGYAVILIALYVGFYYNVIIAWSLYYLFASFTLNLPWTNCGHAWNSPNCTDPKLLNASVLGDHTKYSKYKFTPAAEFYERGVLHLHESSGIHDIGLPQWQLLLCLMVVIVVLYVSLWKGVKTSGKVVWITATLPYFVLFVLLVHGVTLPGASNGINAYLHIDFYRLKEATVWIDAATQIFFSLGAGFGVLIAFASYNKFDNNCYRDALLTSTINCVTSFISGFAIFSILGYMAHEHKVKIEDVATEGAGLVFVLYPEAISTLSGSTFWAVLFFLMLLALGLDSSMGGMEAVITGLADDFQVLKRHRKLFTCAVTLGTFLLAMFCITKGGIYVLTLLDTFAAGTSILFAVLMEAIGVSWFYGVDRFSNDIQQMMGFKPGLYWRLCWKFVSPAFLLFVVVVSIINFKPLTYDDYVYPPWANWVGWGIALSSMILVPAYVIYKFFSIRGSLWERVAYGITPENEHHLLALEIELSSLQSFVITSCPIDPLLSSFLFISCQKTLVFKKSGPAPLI
Chain of Sodium-dependent serotonin transporter (P31652 whole entry): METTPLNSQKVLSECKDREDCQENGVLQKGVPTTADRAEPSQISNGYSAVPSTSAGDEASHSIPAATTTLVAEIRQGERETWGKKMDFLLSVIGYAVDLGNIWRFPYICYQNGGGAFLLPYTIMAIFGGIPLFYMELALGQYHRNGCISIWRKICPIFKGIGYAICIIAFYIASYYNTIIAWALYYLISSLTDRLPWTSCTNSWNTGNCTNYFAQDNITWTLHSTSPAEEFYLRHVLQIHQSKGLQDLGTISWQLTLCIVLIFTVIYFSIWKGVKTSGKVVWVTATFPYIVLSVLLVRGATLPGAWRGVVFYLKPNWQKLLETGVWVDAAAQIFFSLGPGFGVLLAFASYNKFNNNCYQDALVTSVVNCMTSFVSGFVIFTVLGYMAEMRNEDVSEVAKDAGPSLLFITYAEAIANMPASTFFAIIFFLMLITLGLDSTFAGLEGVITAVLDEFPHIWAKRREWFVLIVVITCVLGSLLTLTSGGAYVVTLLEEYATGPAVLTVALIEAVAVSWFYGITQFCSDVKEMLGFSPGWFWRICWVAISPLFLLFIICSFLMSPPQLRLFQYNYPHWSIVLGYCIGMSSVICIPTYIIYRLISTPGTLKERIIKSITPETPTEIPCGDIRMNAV
Chain of Sodium-dependent dopamine transporter (P23977 whole entry): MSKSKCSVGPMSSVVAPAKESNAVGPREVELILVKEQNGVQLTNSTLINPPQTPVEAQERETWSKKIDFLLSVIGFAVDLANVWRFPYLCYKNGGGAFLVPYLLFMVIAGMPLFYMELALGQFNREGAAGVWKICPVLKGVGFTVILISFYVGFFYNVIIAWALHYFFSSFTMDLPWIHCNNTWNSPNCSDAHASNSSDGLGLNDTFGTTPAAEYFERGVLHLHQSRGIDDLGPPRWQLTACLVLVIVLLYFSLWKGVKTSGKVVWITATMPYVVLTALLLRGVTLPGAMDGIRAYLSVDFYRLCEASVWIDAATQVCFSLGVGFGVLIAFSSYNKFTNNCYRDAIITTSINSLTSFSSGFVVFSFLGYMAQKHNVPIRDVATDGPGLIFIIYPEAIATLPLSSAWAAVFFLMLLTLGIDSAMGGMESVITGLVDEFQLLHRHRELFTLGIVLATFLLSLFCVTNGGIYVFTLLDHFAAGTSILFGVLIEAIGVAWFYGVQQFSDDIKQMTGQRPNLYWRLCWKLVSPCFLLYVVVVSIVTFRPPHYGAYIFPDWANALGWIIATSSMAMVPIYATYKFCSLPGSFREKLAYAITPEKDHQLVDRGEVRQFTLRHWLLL

Compound | pIC50 (Rattus norvegicus [2]) | pKi [3] | pKi [6] | pKi [7] | further results
Cc1ccc(C2C[C@H]3CCC(C2CCCO)N3C)cc1 (some centres undefined) | 6.58 | 6.87 |  |  | Max effect (Rattus norvegicus [1]): 93.9%
Cc1ccc([C@H]2C[C@H]3CC[C@H]([C@H]2[C@@H](O)c2ccc(C)cc2)N3C)cc1 | 6.84 | 7.85 | 7.18 | 6.33 | ED50 (Rattus norvegicus [4]): 61600 µmol/kg; Max effect (Rattus norvegicus [5]): 97.9%
Cc1ccc(C(=O)C2C(c3ccc(C)cc3)CC3CCC2N3C)cc1 (centres undefined) | 7.09 | 7.77 |  |  | Max effect (Rattus norvegicus [8]): 100%
Cc1ccc([C@H]2C[C@H]3CC[C@H]([C@@H]2[C@@H](O)c2ccc(C)cc2)N3C)cc1 | 7.24 | 7.60 |  |  | 
Cc1ccc([C@@H](O)[C@@H]2C3CC[C@H](C[C@@H]2c2ccc(C)cc2)N3C)cc1 | 6.97 | 7.07 | 7.15 | 6.67 | ED50 (Rattus norvegicus [9]): 31400 µmol/kg; Max effect (Rattus norvegicus [10]): 66.7%
Cc1ccc(C2C[C@H]3CCC([C@@H]2CO)N3C)cc1 (some centres undefined) | 5.39 | 5.46 | 4.80 | 4.77 | ED50 (Rattus norvegicus [11]): 20600 µmol/kg; Max effect (Rattus norvegicus [12]): 2.96%; NS (Rattus norvegicus [13]): Nonsignificant linear regression
Cc1ccc(CC2C(c3ccc(C)cc3)C[C@H]3CCC2N3C)cc1 (some centres undefined) | 7.80 | 7.96 |  | 6.57 | Max effect (Rattus norvegicus [14]): 82.8%
COC(=O)/C=C/C1C(c2ccc(C)cc2)C[C@H]2CCC1N2C (some centres undefined) | 6.51 | 6.91 |  |  | Max effect (Rattus norvegicus [15]): 69.9%
